Results as given in US12599672B2, “KRAS proteolysis targeting chimeras” (PAQ Therapeutics Inc., priority 2023, dated 2026).

How the values were obtained:
KRAS G12D = biological target: T1, KRAS G12D (Homo sapiens, UniProt P01116, G12D); assay: KRAS G12D HiBit assay; type: cell-based; conditions: AsPc-1-KRAS (G12D)-HiBit-KI cell, compound treatment for 24 hours; for DC50: absolute DC50
T1 construct: AsPc-1-KRAS (G12D)-HiBit-KI cell (Pharmaron); host or cells: AsPc-1-KRAS (G12D)-HiBit-KI cells (HiBiT knock-in at the endogenous KRAS locus)
Description: Day 1. […] Allowed cells to reach approximately 80% confluence before splitting. Rinsed cultivated cells in T-75 flasks with 5 mL PBS (Solarbio, P1020-500). […] Inactivated trypsin by adding excessive serum containing medium. Harvested the cells from flask into cell culture medium and counted the cell number.
Day 2. Test compounds were dissolved at 0.3 mM in DMSO (Solarbio, D8371) as stock solution. […] Performed 3-fold, 10-points dilution via transferring 15 μL compound into 30 μL DMSO by using TECAN liquid handler (TECAN, Freedom EVO200).
Day 3. After compound treatment for 24 hours, removed the plate from incubators and equilibrated at room temperature for 15 minutes. Prepared the HiBit reagent (Promega, N3040) by mixing 10 mL of Nano-Glo®-HiBiT Lytic Buffer with 200 μL of Nano-Glo®-HiBiT Lytic Substrate and 100 μL of LgBiT Protein. Added 20 μL of HiBit reagent into each well of the cell plate and spun the plates at room temperature at 1,000 RPM for 1 minute.
The inhibition activity was calculated using the following formula:
(§1) [formula] where HC (high control) is obtained from cells treated with 0.1% DMSO only.

KRAS G12V = biological target: T2, KRAS G12V (Homo sapiens, UniProt P01116, G12V); assay: KRAS G12V HiBit assay; type: cell-based; conditions: SW620-KRAS (G12V)-HiBit-KI cells, compound treatment for 24 hours, class symbols
T2 construct: SW620-KRAS (G12V)-HiBit-KI cell (Pharmaron); host or cells: SW620-KRAS (G12V)-HiBit-KI cells (HiBiT knock-in at the endogenous KRAS locus)
Description: Day 1. […] Rinsed cultivated cells in T-75 flasks with 5 mL PBS (Solarbio, P1020-500). […] Inactivated trypsin by adding excessive serum containing medium. Harvested the cells from flask into cell culture medium and counted the cell number.
Day 2. Test compounds were dissolved at 0.3 mM in DMSO (Solarbio, D8371) as stock solution. […] Performed 3-fold, 10-points dilution via transferring 15 μL compound into 30 μL DMSO by using TECAN liquid handler (TECAN, Freedom EVO200). […] After compound treatment for 24 hours, the plate was removed from incubators and equilibrated at room temperature for 15 minutes. Prepare the HiBit reagent (Promega, N3040) by mixing 10 mL of Nano-Glo®-HiBiT Lytic Buffer with 200 μL of Nano-Glo®-HiBiT Lytic Substrate and 100 μL of LgBiT Protein. Added 20 μL of HiBit reagent into each well of the cell plate and spun the plates at room temperature at 1,000 RPM for 1 minute.
The degradation activity was calculated using the following formula:
as §1

T2 sequence (P01116 1-188 isoform P01116-2 G12V): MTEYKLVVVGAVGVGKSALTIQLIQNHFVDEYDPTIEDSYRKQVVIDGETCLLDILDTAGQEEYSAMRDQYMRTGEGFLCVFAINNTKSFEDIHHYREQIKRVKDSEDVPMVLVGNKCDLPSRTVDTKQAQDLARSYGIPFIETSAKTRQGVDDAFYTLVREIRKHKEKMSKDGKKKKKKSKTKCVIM
T1 sequence (P01116 1-188 isoform P01116-2 G12D): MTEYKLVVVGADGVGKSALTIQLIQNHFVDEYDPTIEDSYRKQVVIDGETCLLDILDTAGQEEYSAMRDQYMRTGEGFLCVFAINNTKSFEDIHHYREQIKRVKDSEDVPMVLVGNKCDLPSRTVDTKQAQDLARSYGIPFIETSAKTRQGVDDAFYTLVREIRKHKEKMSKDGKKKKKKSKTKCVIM

Structure (SMILES)	DC50 (KRAS G12D; class symbols) [nM]	Dmax (KRAS G12D; class symbols) [%]	DC50 (KRAS G12V) [nM]	DC50 (KRAS G12D; numeric bounds given in place of class symbols) [nM]
C#Cc1c(F)ccc2cccc(-c3ncc4c(N5CCC[C@@](C)(O)C5)nc(OC[C@@]56CCCN5[C@H](COC(=O)N5CCC(CN7CCC(c8ccc9c(c8)n(C)c(=O)n9C8CCC(=O)NC8=O)CC7)CC5)CC6)nc4c3F)c12 (stereo partly drawn) [Compound 3, [(3S,8S)-8-[[7-(8-Ethynyl-7-fluoro-1-naphthyl)-8-fluoro-4-[(3R)-3-hydroxy-3-methyl-1-piperidyl]pyrido[4,3-d]pyrimidin-2-yl]oxymethyl]-1,2,3,5,6,7-hexahydropyrrolizin-3-yl]methyl 4-[[4-[1-(2,6-dioxo-3-piperidyl)-3-methyl-2-oxo-benzimidazol-5-yl]-1-piperidyl]methyl]piperidine-1-carboxylate]	< 100	> 50	> 100	–
C#Cc1c(F)ccc2cccc(-c3ncc4c(N5CCC[C@@](C)(O)C5)nc(OCC5(CN6CCC(CN7CCN(c8ccc9c(c8)C(=O)N(C8CCC(=O)NC8=O)C9=O)CC7)CC6)CC5)nc4c3F)c12 (stereo partly shown) [Compound 49]	–	–	> 100	> 160
C#Cc1c(F)ccc2cc(O)cc(-c3ncc4c(N5CCC[C@@](C)(O)C5)nc(OCC5(CN6CC7(C6)CN(c6ccc8c(c6)n(C)c(=O)n8C6CCC(=O)NC6=O)C7)CC5)nc4c3F)c12 (stereo partly shown) [Compound 51]	< 100	–	> 100	–
C#Cc1c(F)ccc2cccc(-c3ncc4c(N5CCC[C@@](C)(O)C5)nc(OCC5(CN6CCN(C7CCN(c8ccc9c(c8)n(C)c(=O)n9C8CCC(=O)NC8=O)CC7)CC6)CC5)nc4c3F)c12 (stereo partly shown) [Compound 53]	> 300	–	> 100	–
C#Cc1c(F)ccc2cccc(-c3ncc4c(N5CCC[C@@](C)(O)C5)nc(OCC5(CN6CCC(N7CCC(c8ccc9c(C%10CCC(=O)NC%10=O)nn(C)c9c8)CC7)CC6)CC5)nc4c3F)c12 (stereo partly shown) [Compound 57]	< 100	–	> 100	–
C#Cc1c(F)ccc2cccc(-c3ncc4c(N5CCC[C@@](C)(O)C5)nc(OCC5(CN6CCC(CN7CCC(c8cccc9c8n(C)c(=O)n9C8CCC(=O)NC8=O)CC7)CC6)CC5)nc4c3F)c12 (stereo partly shown) [Compound 60]	< 100	–	> 100	–
C#Cc1c(F)ccc2cc(O)cc(-c3ncc4c(N5CCC[C@@](C)(O)C5)nc(OCC5(CN6CCN(Cc7cccc8c7n(C)c(=O)n8C7CCC(=O)NC7=O)CC6)CC5)nc4c3F)c12 (stereo partly shown) [Compound 63]	> 300	–	> 100	–
C#Cc1c(F)ccc2cccc(-c3ncc4c(N5CCC[C@@](C)(O)C5)nc(OCC5(CN6CCC7(CC6)CC(N6CCN(c8cccc9c8n(C)c(=O)n9C8CCC(=O)NC8=O)CC6)C7)CC5)nc4c3F)c12 (stereo partly shown) [Compound 70]	> 300	–	> 100	–
C#Cc1c(F)ccc2cccc(-c3ncc4c(N5CCC[C@@](C)(O)C5)nc(OCC5(CN6CCC(CN7CCN(c8cccc9c8n(C)c(=O)n9C8CCC(=O)NC8=O)CC7)CC6)CC5)nc4c3F)c12 (stereo partly shown) [Compound 73]	> 300	–	> 100	–
C#Cc1c(F)ccc2cccc(-c3ncc4c(N5CCC[C@@](C)(O)C5)nc(OCC5(CN6CCC(N7CCC(c8cccc9c8n(C)c(=O)n9C8CCC(=O)NC8=O)CC7)CC6)CC5)nc4c3F)c12 (stereo partly shown) [Compound 74]	> 300	–	> 100	–
C#Cc1c(F)ccc2cccc(-c3ncc4c(N5CCC[C@@](C)(O)C5)nc(OCC5(CN6CCN(CC7CCN(c8cccc9c8n(C)c(=O)n9C8CCC(=O)NC8=O)CC7)CC6)CC5)nc4c3F)c12 (stereo partly shown) [Compound 78]	> 300	–	> 100	–
CCc1c(F)ccc2cc(O)cc(-c3ncc4c(N5CCC[C@@](C)(O)C5)nc(OC[C@@]56CCCN5[C@H](COC(=O)N5CCC7(CC5)CC(N5CCC(c8ccc9c(c8)n(C)c(=O)n9C8CCC(=O)N(C)C8=O)CC5)C7)CC6)nc4c3F)c12 (stereo partly drawn) [Compound 491, ((3S,7aS)-7a-(((7-(8-ethyl-7-fluoro-3-hydroxynaphthalen-1-yl)-8-fluoro-4-((R)-3-hydroxy-3-methylpiperidin-1-yl)pyrido[4,3-d]pyrimidin-2-yl)oxy)methyl)hexahydro-1H-pyrrolizin-3-yl)methyl 2-(4-(3-methyl-1-(1-methyl-2,6-dioxopiperidin-3-yl)-2-oxo-2,3-dihydro-1H-benzo[d]imidazol-5-yl)piperidin-1-yl)-7-azaspiro[3.5]nonane-7-carboxylate]	–	–	> 100	–

Second part, the compound after the results:

DC50 (KRAS G12D; class symbols) [nM]	Dmax (KRAS G12D; class symbols) [%]	DC50 (KRAS G12V) [nM]	DC50 (KRAS G12D; numeric bounds given in place of class symbols) [nM]	Structure (SMILES)
< 100	–	> 100	–	C#Cc1c(F)ccc2cc(O)cc(-c3ccc4c(N5CCC[C@@](C)(O)C5)nc(OCC5(CN6CCC(CN7CCN(c8ccc9c(c8)n(C)c(=O)n9C8CCC(=O)NC8=O)CC7)CC6)CC5)nc4c3F)c12 (stereo partly shown) [Compound 12]
< 100	> 50	> 100	–	C#Cc1c(F)ccc2cc(O)cc(-c3ncc4c(N5CCCCCC5)nc(OCC5(CN6CCN(CC7CCN(c8ccc9c(c8)n(C)c(=O)n9C8CCC(=O)NC8=O)CC7)CC6)CC5)nc4c3F)c12 (stereo not shown) [Compound 16]
< 100	> 50	> 100	–	C#Cc1c(F)ccc2cc(O)cc(-c3ncc4c(N5CCCC(F)(F)C5)nc(OCC5(CN6CCN(CC7CCN(c8ccc9c(c8)n(C)c(=O)n9C8CCC(=O)NC8=O)CC7)CC6)CC5)nc4c3F)c12 (stereo not shown) [Compound 17, 3-(5-(4-((4-((1-(((4-(3,3-Difluoropiperidin-1-yl)-7-(8-ethynyl-7-fluoro-3-hydroxynaphthalen-1-yl)-8-fluoropyrido[4,3-d]pyrimidin-2-yl)oxy)methyl)cyclopropyl)methyl)piperazin-1-yl)methyl)piperidin-1-yl)-3-methyl-2-oxo-2,3-dihydro-1H-benzo[d]imidazol-1-yl) piperidine-2,6-dione]
> 300	15 to 50	> 100	–	C#Cc1c(F)ccc2cc(O)cc(-c3ncc4c(N5CCOCC5)nc(OCC5(CN6CCN(CC7CCN(c8ccc9c(c8)n(C)c(=O)n9C8CCC(=O)NC8=O)CC7)CC6)CC5)nc4c3F)c12 (stereo not shown) [Compound 18, 3-[5-[4-[[4-[[1-[[7-(8-Ethynyl-7-fluoro-3-hydroxy-1-naphthyl)-8-fluoro-4-morpholino-pyrido[4,3-d]pyrimidin-2-yl]oxymethyl]cyclopropyl]methyl]piperazin-1-yl]methyl]-1-piperidyl]-3-methyl-2-oxo-benzimidazol-1-yl]piperidine-2,6-dione]
< 100	–	< 10	–	C#Cc1c(F)ccc2cc(O)cc(-c3ncc4c(N5CCC[C@@](C)(O)C5)nc(OCC5(CN6CCC(CN7CCN(c8ccc9c(c8)n(C)c(=O)n9C8CCC(=O)NC8=O)CC7)CC6)CC5)nc4c3F)c12 (stereo partly shown) [Compound 25]
< 100	–	> 100	–	C#Cc1c(F)ccc2cc(O)cc(-c3ncc4c(N5CCC[C@@](C)(O)C5)nc(OCC5(CN6CCN(CCN7CCN(c8ccc9c(c8)n(C)c(=O)n9C8CCC(=O)NC8=O)CC7)CC6)CC5)nc4c3F)c12 (stereo partly shown) [Compound 28]
> 300	–	> 100	–	C#Cc1c(F)ccc2cc(O)cc(-c3ncc4c(N5CCC[C@@](C)(O)C5)nc(OCC5(CN6CCC7(CC6)CN(c6ccc8c(c6)n(C)c(=O)n8C6CCC(=O)NC6=O)C7)CC5)nc4c3F)c12 (stereo partly shown) [Compound 33]
> 300	–	> 100	–	C#Cc1c(F)ccc2cc(O)cc(-c3ncc4c(N5CCC[C@@](C)(O)C5)nc(OCC5(CN6CCN(Cc7ccc8c(c7)n(C)c(=O)n8C7CCC(=O)NC7=O)CC6)CC5)nc4c3F)c12 (stereo partly shown) [Compound 42]
< 100	–	> 100	–	C#Cc1c(F)ccc2cc(O)cc(-c3ncc4c(N5CCC[C@@](C)(O)C5)nc(OCC5(CN6CCC(CN7CCC(c8ccc9c(c8)n(C)c(=O)n9C8CCC(=O)NC8=O)CC7)CC6)CC5)nc4c3F)c12 (stereo partly shown) [Compound 47]
< 100	–	> 100	–	C#Cc1c(F)ccc2cc(O)cc(-c3ncc4c(N5CCC[C@@](C)(O)C5)nc(OCC5(CN6CCC(CN7CCC(c8cccc9c8n(C)c(=O)n9C8CCC(=O)NC8=O)CC7)CC6)CC5)nc4c3F)c12 (stereo partly shown) [Compound 65]
< 100	–	< 10	–	C#Cc1c(F)ccc2cc(O)cc(-c3ncc4c(N5CCC[C@@](C)(O)C5)nc(OCC5(CN6CCC(CN7CCN(c8cccc9c8n(C)c(=O)n9C8CCC(=O)NC8=O)CC7)CC6)CC5)nc4c3F)c12 (stereo partly shown) [Compound 72]
